# From ChEMBL document CHEMBL1671626, “In vitro profiling of ceftaroline against a collection of recent bacterial clinical isolates from across the United States” (2008)
# Key:
# Format in all cases: functional
# Staphylococcus aureus [1] = test: Antibacterial activity against methicillin-susceptible Staphylococcus aureus by CLSI M7-A7 broth microdilution method
# Staphylococcus aureus [2] = test: Antibacterial activity against coagulase-negative and oxacillin-resistant Staphylococcus aureus by CLSI M7-A7 broth microdilution method
# Streptococcus pneumoniae [3] = test: Antibacterial activity against penicillin-susceptible Streptococcus pneumoniae assessed as susceptible isolates by CLSI M7-A7 broth microdilution method
# Streptococcus pneumoniae [4] = test: Antibacterial activity against penicillin-susceptible Streptococcus pneumoniae assessed as resistant isolates by CLSI M7-A7 broth microdilution method
# Streptococcus pneumoniae [5] = test: Antibacterial activity against penicillin-resistant Streptococcus pneumoniae by CLSI M7-A7 broth microdilution method
# Streptococcus pyogenes [6] = test: Antibacterial activity against erythromycin-susceptible Streptococcus pyogenes by CLSI M7-A7 broth microdilution method
# Streptococcus pyogenes [7] = test: Antibacterial activity against erythromycin-susceptible Streptococcus pyogenes assessed as susceptible isolates by CLSI M7-A7 broth microdilution method
# Streptococcus pyogenes [8] = test: Antibacterial activity against erythromycin-nonsusceptible Streptococcus pyogenes assessed as susceptible isolates by CLSI M7-A7 broth microdilution method
# Streptococcus agalactiae [9] = test: Antibacterial activity against erythromycin-susceptible Streptococcus agalactiae assessed as susceptible isolates by CLSI M7-A7 broth microdilution method
# Streptococcus agalactiae [10] = test: Antibacterial activity against erythromycin-susceptible Streptococcus agalactiae by CLSI M7-A7 broth microdilution method
# Streptococcus agalactiae [11] = test: Antibacterial activity against erythromycin-nonsusceptible Streptococcus agalactiae assessed as susceptible isolates by CLSI M7-A7 broth microdilution method
# Streptococcus agalactiae [12] = test: Antibacterial activity against erythromycin-nonsusceptible Streptococcus agalactiae by CLSI M7-A7 broth microdilution method
# Streptococcus viridans [13] = test: Antibacterial activity against penicillin-susceptible Streptococcus viridans assessed as susceptible isolates by CLSI M7-A7 broth microdilution method
# Streptococcus viridans [14] = test: Antibacterial activity against penicillin-susceptible Streptococcus viridans assessed as resistant isolates by CLSI M7-A7 broth microdilution method
# Streptococcus viridans [15] = test: Antibacterial activity against penicillin-nonsusceptible Streptococcus viridans by CLSI M7-A7 broth microdilution method
# Streptococcus viridans [16] = test: Antibacterial activity against penicillin-nonsusceptible Streptococcus viridans assessed as susceptible isolates by CLSI M7-A7 broth microdilution method
# Enterococcus faecalis [17] = test: Antibacterial activity against vancomycin-susceptible Enterococcus faecalis by CLSI M7-A7 broth microdilution method
# Enterococcus faecalis [18] = test: Antibacterial activity against vancomycin-resistant Enterococcus faecalis by CLSI M7-A7 broth microdilution method
# Enterococcus faecium = test: Antibacterial activity against vancomycin-resistant Enterococcus faecium by CLSI M7-A7 broth microdilution method
# Enterobacteriaceae [19] = test: Antibacterial activity against ceftazidime-susceptible Enterobacteriaceae assessed as resistant isolates by CLSI M7-A7 broth microdilution method
# Enterobacteriaceae [20] = test: Antibacterial activity against ceftazidime-nonsusceptible Enterobacteriaceae by CLSI M7-A7 broth microdilution method
# Enterobacteriaceae [21] = test: Antibacterial activity against ceftazidime-nonsusceptible Enterobacteriaceae assessed as susceptible isolates by CLSI M7-A7 broth microdilution method
# Citrobacter freundii [22] = test: Antibacterial activity against ceftazidime-susceptible Citrobacter freundii assessed as susceptible isolates by CLSI M7-A7 broth microdilution method
# Citrobacter freundii [23] = test: Antibacterial activity against ceftazidime-susceptible Citrobacter freundii assessed as resistant isolates by CLSI M7-A7 broth microdilution method
# Citrobacter freundii [24] = test: Antibacterial activity against ceftazidime-nonsusceptible Citrobacter freundii by CLSI M7-A7 broth microdilution method
# Citrobacter freundii [25] = test: Antibacterial activity against ceftazidime-nonsusceptible Citrobacter freundii assessed as susceptible isolates by CLSI M7-A7 broth microdilution method
# Citrobacter freundii [26] = test: Antibacterial activity against ceftazidime-nonsusceptible Citrobacter freundii assessed as resistant isolates by CLSI M7-A7 broth microdilution method
# Enterobacter cloacae = test: Antibacterial activity against ceftazidime-nonsusceptible Enterobacter cloacae assessed as susceptible isolates by CLSI M7-A7 broth microdilution method
# Escherichia coli [27] = test: Antibacterial activity against ceftazidime-susceptible Escherichia coli by CLSI M7-A7 broth microdilution method
# Escherichia coli [28] = test: Antibacterial activity against ceftazidime-nonsusceptible Escherichia coli assessed as resistant isolates by CLSI M7-A7 broth microdilution method
# Klebsiella pneumoniae [29] = test: Antibacterial activity against ceftazidime-susceptible Klebsiella pneumoniae by CLSI M7-A7 broth microdilution method
# Klebsiella pneumoniae [30] = test: Antibacterial activity against ceftazidime-susceptible Klebsiella pneumoniae assessed as susceptible isolates by CLSI M7-A7 broth microdilution method
# Klebsiella pneumoniae [31] = test: Antibacterial activity against ceftazidime-susceptible Klebsiella pneumoniae assessed as resistant isolates by CLSI M7-A7 broth microdilution method
# Klebsiella pneumoniae [32] = test: Antibacterial activity against ceftazidime-nonsusceptible Klebsiella pneumoniae by CLSI M7-A7 broth microdilution method
# Klebsiella pneumoniae [33] = test: Antibacterial activity against ceftazidime-nonsusceptible Klebsiella pneumoniae assessed as resistant isolates by CLSI M7-A7 broth microdilution method
# Morganella morganii = test: Antibacterial activity against ceftazidime-susceptible Morganella morganii by CLSI M7-A7 broth microdilution method
# Proteus mirabilis [34] = test: Antibacterial activity against ceftazidime-susceptible Proteus mirabilis by CLSI M7-A7 broth microdilution method
# Proteus mirabilis [35] = test: Antibacterial activity against ceftazidime-susceptible Proteus mirabilis assessed as susceptible isolates by CLSI M7-A7 broth microdilution method
# Serratia marcescens = test: Antibacterial activity against ceftazidime-susceptible Serratia marcescens assessed as resistant isolates by CLSI M7-A7 broth microdilution method
# Acinetobacter [36] = test: Antibacterial activity against multidrug-resistant Acinetobacter assessed as susceptible isolates by CLSI M7-A7 broth microdilution method
# Acinetobacter [37] = test: Antibacterial activity against imipenem-susceptible Acinetobacter assessed as susceptible isolates by CLSI M7-A7 broth microdilution method
# Haemophilus influenzae = test: Antibacterial activity against beta lactamase-negative Haemophilus influenzae by CLSI M7-A7 broth microdilution method
# Pasteurella multocida = test: Antibacterial activity against Pasteurella multocida by CLSI M7-A7 broth microdilution method
# Providencia sp. = test: Antibacterial activity against ceftazidime-susceptible Providencia sp. by CLSI M7-A7 broth microdilution method
compound,measurement,setting,value
C[C@H]1COc2c(N3CCN(C)CC3)c(F)cc3c(=O)c(C(=O)O)cn1c23.C[C@H]1COc2c(N3CCN(C)CC3)c(F)cc3c(=O)c(C(=O)O)cn1c23.O [LEVOFLOXACIN],MIC50,Staphylococcus aureus [1],0.12 µg/mL
same,MIC90,Staphylococcus aureus [1],16 µg/mL
same,MIC50,Staphylococcus aureus [2],8 µg/mL
same,MIC90,Staphylococcus aureus [2],> 16 µg/mL
same,Activity,Streptococcus pneumoniae [3],98.5%
same,Activity,Streptococcus pneumoniae [4],1.5%
same,MIC50,Streptococcus pneumoniae [5],0.5 µg/mL
same,MIC90,Streptococcus pneumoniae [5],1 µg/mL
same,MIC50,Streptococcus pyogenes [6],0.5 µg/mL
same,MIC90,Streptococcus pyogenes [6],1 µg/mL
same,Activity,Streptococcus pyogenes [7],100%
same,Activity,Streptococcus pyogenes [8],100%
same,Activity,Streptococcus agalactiae [9],100%
same,MIC50,Streptococcus agalactiae [10],0.5 µg/mL
same,MIC90,Streptococcus agalactiae [10],1 µg/mL
same,Activity,Streptococcus agalactiae [11],97.6%
same,MIC50,Streptococcus agalactiae [12],1 µg/mL
same,MIC90,Streptococcus agalactiae [12],1 µg/mL
same,Activity,Streptococcus viridans [13],100%
same,Activity,Streptococcus viridans [14],0%
same,MIC50,Streptococcus viridans [15],1 µg/mL
same,MIC90,Streptococcus viridans [15],2 µg/mL
same,Activity,Streptococcus viridans [16],92.9%
same,MIC50,Enterococcus faecalis [17],1 µg/mL
same,MIC90,Enterococcus faecalis [17],> 16 µg/mL
same,MIC50,Enterococcus faecalis [18],> 16 µg/mL
same,MIC,Enterococcus faecium,> 16 µg/mL
same,MIC50,Enterococcus faecium,> 16 µg/mL
same,MIC90,Enterococcus faecium,> 16 µg/mL
same,Activity,Enterobacteriaceae [19],9.4%
same,MIC50,Enterobacteriaceae [20],8 µg/mL
same,MIC90,Enterobacteriaceae [20],> 16 µg/mL
same,Activity,Enterobacteriaceae [21],41.8%
same,Activity,Citrobacter freundii [22],98%
same,Activity,Citrobacter freundii [23],0%
same,MIC50,Citrobacter freundii [24],0.25 µg/mL
same,MIC90,Citrobacter freundii [24],16 µg/mL
same,Activity,Citrobacter freundii [25],72.7%
same,Activity,Citrobacter freundii [26],24.2%
same,Activity,Enterobacter cloacae,62.9%
same,MIC50,Escherichia coli [27],≤ 0.03 µg/mL
same,MIC90,Escherichia coli [27],16 µg/mL
same,Activity,Escherichia coli [28],85.7%
same,MIC50,Klebsiella pneumoniae [29],0.06 µg/mL
same,MIC90,Klebsiella pneumoniae [29],0.25 µg/mL
same,Activity,Klebsiella pneumoniae [30],98.1%
same,Activity,Klebsiella pneumoniae [31],1.4%
same,MIC50,Klebsiella pneumoniae [32],8 µg/mL
same,MIC90,Klebsiella pneumoniae [32],> 16 µg/mL
same,Activity,Klebsiella pneumoniae [33],54.5%
same,MIC50,Morganella morganii,≤ 0.03 µg/mL
same,MIC90,Morganella morganii,8 µg/mL
same,MIC50,Proteus mirabilis [34],0.06 µg/mL
same,MIC90,Proteus mirabilis [34],16 µg/mL
same,Activity,Proteus mirabilis [35],75.9%
same,Activity,Serratia marcescens,1.7%
same,Activity,Acinetobacter [36],6.3%
same,Activity,Acinetobacter [37],51.1%
same,MIC50,Haemophilus influenzae,0.015 µg/mL
same,MIC90,Haemophilus influenzae,0.03 µg/mL
same,MIC50,Pasteurella multocida,≤ 0.015 µg/mL
same,MIC90,Pasteurella multocida,0.03 µg/mL
same,MIC50,Providencia sp.,0.25 µg/mL
same,MIC90,Providencia sp.,> 16 µg/mL
